The source of these data is patent publication US12350270B2, “Antimalarial agents” (Merck Sharp & Dohme LLC, priority 2019, dated 2025).

The subject of one test is parasites (ring stage, in human red blood cell culture). Put plainly: Parasite LDH growth assay (antiparasite potency, Parasite Assay). The class given is cell-based, Plasmodium falciparum. As to conditions: 0.7% rings, 2% haematocrit, 72 hours at 37° C., LDH readout of parasite growth. Summed up:
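Growth was read by an LDH assay after a freeze–thaw cycle (−80 °C overnight, 4 h thaw at RT). Before that, parasites grew with compound for 72 h at 37 °C under gassed, humidified conditions. The input was a ring-stage culture adjusted to 0.7% parasitemia and 2% haematocrit in serum (5%)/albumax (0.5%)-supplemented RPMI-Hepes.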
As usually defined, the EC50 is the midpoint of the concentration-response curve. A high value points to a need for much substance. Regarding `CC1(C)CC(=O)N([C@@H]2CCOc3ccc(C(=O)N[C@H]4CC(C)(C)Oc5ccccc54)cc32)C(=N)N1` [Example 106, (4R)-N-[(4S)-2,2-dimethylchroman-4-yl]-4-(2-imino-4,4-dimethyl-6-oxo-hexahydropyrimidin-1-yl)chromane-6-carboxamide], the EC50 worked out at 6.6 nM.

The same test, now with this note: Plasmodium falciparum, Erythrocyte, 72 h, 0.7% rings, 2% haematocrit, 72 hours at 37° C., LDH readout of parasite growth.
In the case of `CC[C@]1(C)CC(=O)N([C@@H]2CCc3ccc(C(=O)N[C@@H]4c5ccccc5C[C@H]4O)cc32)C(=N)N1` [Example 81, (3R)-3-[(4R)-4-ethyl-2-imino-4-methyl-6-oxo-hexahydropyrimidin-1-yl]-N-[(1R,2R)-2-hydroxyindan-1-yl]indane-5-carboxamide], the concentration for a half-maximal effect (EC50) turned out to be 6.6 nM.

Molecule `C[C@@H]1C[C@@H](N2C(=N)NC(C)(C)CC2=O)c2cc(C(=O)N[C@@H]3c4ccccc4C[C@H]3O)ccc21` [Example 82, (1R,3R)-N-[(1R,2R)-2-hydroxyindan-1-yl]-3-(2-imino-4,4-dimethyl-6-oxo-hexahydropyrimidin-1-yl)-1-methyl-indane-5-carboxamide] displayed an EC50 of 15.5 nM.

`CCC1(CC)CC(=O)N([C@@H]2Cc3ccc(C(=O)N[C@@H]4c5ccccc5C[C@H]4O)cc32)C(=N)N1` [Example 83, (8R)-8-(4,4-diethyl-2-imino-6-oxo-hexahydropyrimidin-1-yl)-N-[(1R,2R)-2-hydroxyindan-1-yl]bicyclo[4.2.0]octa-1(6),2,4-triene-3-carboxamide]: the response was half-maximal at 20 nM (EC50).

Molecule `CC1(C)CC(=O)N([C@@H]2CCc3ccc(C(=O)N[C@H]4CC(C)(C)Oc5ccccc54)cc32)C(=N)N1` [Example 84, (3R)-N-[(4S)-2,2-dimethylchroman-4-yl]-3-(2-imino-4,4-dimethyl-6-oxo-hexahydropyrimidin-1-yl)indane-5-carboxamide] came in with an EC50 of 0.9 nM.

In turn, `CCC1(CC)CC(=O)N([C@@H]2CCc3ccc(C(=O)N[C@@H]4c5ccccc5C[C@H]4O)cc32)C(=N)N1` [Example 85, (3R)-3-(4,4-diethyl-2-imino-6-oxo-hexahydropyrimidin-1-yl)-N-[(1R,2R)-2-hydroxyindan-1-yl]indane-5-carboxamide] had an EC50 of 10.7 nM.

For `CC1(C)CC(=O)N(C2CC(C)(C)c3ccc(C(=O)N[C@@H]4c5ccccc5C[C@H]4O)cc32)C(=N)N1` (stereo partly drawn) [Example 86, N-[(1R,2R)-2-hydroxyindan-1-yl]-3-(2-imino-4,4-dimethyl-6-oxo-hexahydropyrimidin-1-yl)-1,1-dimethyl-indane-5-carboxamide], the concentration for a half-maximal effect (EC50) came out at 87.8 nM.

In turn, `CC1(C)CC(=O)N([C@H]2c3cc(C(=O)N[C@@H]4c5ccccc5C[C@H]4O)ccc3CC2(C)C)C(=N)N1` [Example 87, N-[(1R,2R)-2-hydroxyindan-1-yl]-3-(2-imino-4,4-dimethyl-6-oxo-hexahydropyrimidin-1-yl)-2,2-dimethyl-indane-5-carboxamide] showed an EC50 of 105 nM.

Molecule `CC[C@]1(C)CC(=O)N([C@@H]2C[C@@H](C)c3ccc(C(=O)N[C@@H]4c5ccccc5C[C@H]4O)cc32)C(=N)N1` [Example 88, (1R,3R)-3-[(4R)-4-ethyl-2-imino-4-methyl-6-oxo-hexahydropyrimidin-1-yl]-N-[(1R,2R)-2-hydroxyindan-1-yl]-1-methyl-indane-5-carboxamide] came in with an EC50 of 3.4 nM.

With `C[C@@H]1C[C@@H](N2C(=N)NC(C)(C)CC2=O)c2cc(C(=O)N[C@@H]3c4ccccc4C[C@@]3(C)O)ccc21` [Example 89, (1R,3R)-N-[(1R,2R)-2-hydroxy-2-methyl-indan-1-yl]-3-(2-imino-4,4-dimethyl-6-oxo-hexahydropyrimidin-1-yl)-1-methyl-indane-5-carboxamide], the midpoint of the response, the EC50, lay at 43.5 nM.

For the molecule `C[C@@H]1C[C@@H](N2C(=N)NC(C)(C)CC2=O)c2cc(C(=O)N[C@@H]3c4ccccc4C[C@]3(C)O)ccc21` [Example 90, (1R,3R)-N-[(1R,2S)-2-hydroxy-2-methyl-indan-1-yl]-3-(2-imino-4,4-dimethyl-6-oxo-hexahydropyrimidin-1-yl)-1-methyl-indane-5-carboxamide], a half-maximal effect (EC50) was put at 26.8 nM.

`CC1(C)CC(=O)N(C2c3cc(C(=O)N[C@@H]4c5ccccc5C[C@H]4O)ccc3OC2(C)C)C(=N)N1` (stereo partly drawn) [Example 91, N-[(1R,2R)-2-hydroxyindan-1-yl]-3-(2-imino-4,4-dimethyl-6-oxo-hexahydropyrimidin-1-yl)-2,2-dimethyl-3H-benzofuran-5-carboxamide]: a half-maximal effect (EC50) was put at 45.2 nM.

In turn, `CCC1(CC)CC(=O)N([C@@H]2CCOc3ccc(C(=O)N[C@@H](CO)c4ccccc4)cc32)C(=N)N1` [Example 92, (4R)-4-(4,4-diethyl-2-imino-6-oxo-hexahydropyimidin-1-yl)-N-[(1R)-2-hydroxy-1-phenyl-ethyl]chromane-6-carboxamide] gave a concentration for a half-maximal effect (EC50) of 97.2 nM.

The molecule `CC1(C)CC(=O)N(C2CC(C)(C)c3ccc(C(=O)N[C@@H]4c5ccccc5C[C@@]4(C)O)cc32)C(=N)N1` (stereo partly drawn) [Example 93, N-[(1R,2R)-2-hydroxy-2-methyl-indan-1-yl]-3-(2-imino-4,4-dimethyl-6-oxo-hexahydropyrimidin-1-yl)-1,1-dimethyl-indane-5-carboxamide] yielded a concentration giving a half-maximal response (EC50) of 190 nM.

As for `CCC1(CC)CC(=O)N([C@@H]2CCCc3ccc(C(=O)N[C@@H]4c5ccccc5C[C@H]4O)cc32)C(=N)N1` [Example 94, (4R)-4-(4,4-diethyl-2-imino-6-oxo-hexahydropyrimidin-1-yl)-N-[(1R,2R)-2-hydroxyindan-1-yl]tetralin-6-carboxamide], a half-maximal response (EC50) required 1.9 nM.

In the case of `CC[C@]1(C)CC(=O)N([C@@H]2C[C@@H](C)c3ccc(C(=O)N[C@@H]4c5ccccc5C[C@@]4(C)O)cc32)C(=N)N1` [Example 95, (1R,3R)-3-[(4R)-4-ethyl-2-imino-4-methyl-6-oxo-hexahydropyrimidin-1-yl]-N-[(1R,2R)-2-hydroxy-2-methyl-indan-1-yl]-1-methyl-indane-5-carboxamide], it took 8.8 nM to reach a half-maximal effect (EC50).

`CC[C@]1(C)CC(=O)N([C@@H]2C[C@@H](C)c3ccc(C(=O)N[C@@H]4c5ccccc5C[C@]4(C)O)cc32)C(=N)N1` [Example 96, (1R,3R)-3-[(4R)-4-ethyl-2-imino-4-methyl-6-oxo-hexahydropyrimidin-1-yl]-N-[(1R,2S)-2-hydroxy-2-methyl-indan-1-yl]-1-methyl-indane-5-carboxamide] had an EC50 of 6.5 nM.

Turning to `CCC1(CC)CC(=O)N([C@@H]2CCOc3ccc(C(=O)N[C@@H]4c5ccccc5C[C@H]4N)cc32)C(=N)N1` [Example 97, (4R)-N-[(1R,2R)-2-aminoindan-1-yl]-4-(4,4-diethyl-2-imino-6-oxo-hexahydropyrimidin-1-yl)chromane-6-carboxamide], a half-maximal response (EC50) required 19 nM.

Molecule `CC1(C)CC(=O)N([C@@H]2CCc3ccc(C(=O)N[C@@H]4c5ccccc5OC(C)(C)[C@H]4O)cc32)C(=N)N1` [Example 98, (3R)-N-[(3S,4R)-3-hydroxy-2,2-dimethyl-chroman-4-yl]-3-(2-imino-4,4-dimethyl-6-oxo-hexahydropyrimidin-1-yl)indane-5-carboxamide] returned an EC50 of 1.5 nM.

`CC[C@]1(C)CC(=O)N([C@@H]2CCc3ccc(C(=O)N[C@@H]4c5ccccc5OC[C@]4(C)O)cc32)C(=N)N1` [Example 99, (3R)-3-[(4R)-4-ethyl-2-imino-4-methyl-6-oxo-hexahydropyrimidin-1-yl]-N-[(3R,4R)-3-hydroxy-3-methyl-chroman-4-yl]indane-5-carboxamide] had an EC50 of 4.2 nM.

`CC[C@]1(C)CC(=O)N([C@@H]2CCc3ccc(C(=O)N[C@@H]4c5ccccc5OC[C@@]4(C)O)cc32)C(=N)N1` [Example 100, (3R)-3-[(4R)-4-ethyl-2-imino-4-methyl-6-oxo-hexahydropyrimidin-1-yl]-N-[(3S,4R)-3-hydroxy-3-methyl-chroman-4-yl]indane-5-carboxamide] came in with an EC50 of 5.3 nM.

As to `CC1(C)CC(=O)N(C2CC(C)(C)c3ccc(C(=O)N[C@@H]4c5ccccc5OC[C@H]4O)cc32)C(=N)N1` (stereo partly drawn) [Example 101, N-[(3S,4R)-3-hydroxychroman-4-yl]-3-(2-imino-4,4-dimethyl-6-oxo-hexahydropyrimidin-1-yl)-1,1-dimethyl-indane-5-carboxamide], the concentration for a half-maximal effect (EC50) worked out at 46.7 nM.

Turning to `CC[C@]1(C)CC(=O)N([C@@H]2C[C@@H](C)Oc3ccc(C(=O)N[C@@H]4c5ccccc5C[C@H]4O)cc32)C(=N)N1` [Example 102, (2R,4R)-4-[(4R)-4-ethyl-2-imino-4-methyl-6-oxo-hexahydropyrimidin-1-yl]-N-[(1R,2R)-2-hydroxyindan-1-yl]-2-methyl-chromane-6-carboxamide], the response was half-maximal at 14 nM (EC50).

Consider `C[C@@H]1C[C@@H](N2C(=N)NC(C)(C)CC2=O)c2cc(C(=O)N[C@@H]3c4ccccc4OC[C@]3(C)O)ccc21` [Example 103, (1R,3R)-N-[(3R,4R)-3-hydroxy-3-methyl-chroman-4-yl]-3-(2-imino-4,4-dimethyl-6-oxo-hexahydropyrimidin-1-yl)-1-methyl-indane-5-carboxamide], for which a half-maximal effect (EC50) was put at 6.1 nM.

`C[C@@H]1C[C@@H](N2C(=N)NC(C)(C)CC2=O)c2cc(C(=O)N[C@@H]3c4ccccc4OC[C@@]3(C)O)ccc21` [Example 104, (1R,3R)-N-[(3S,4R)-3-hydroxy-3-methyl-chroman-4-yl]-3-(2-imino-4,4-dimethyl-6-oxo-hexahydropyrimidin-1-yl)-1-methyl-indane-5-carboxamide] gave an EC50 of 5 nM.

The molecule `CCC1(CC)CC(=O)N(C2Cc3ccc(C(=O)N[C@@H]4c5ccccc5OC[C@@]4(C)O)cc32)C(=N)N1` (stereo partly drawn) [Example 105, 8-(4,4-diethyl-2-imino-6-oxo-hexahydropyrimidin-1-yl)-N-[(3S,4R)-3-hydroxy-3-methyl-chroman-4-yl]bicyclo[4.2.0]octa-1(6),2,4-triene-3-carboxamide] registered an EC50 of 8.8 nM.

In turn, `CC1(C)CC(=O)N(C2c3cc(C(=O)N[C@@H]4c5ccccc5C[C@@]4(C)O)ccc3OC2(C)C)C(=N)N1` (stereo partly drawn) [Example 107, N-[(1R,2R)-2-hydroxy-2-methyl-indan-1-yl]-3-(2-imino-4,4-dimethyl-6-oxo-hexahydropyrimidin-1-yl)-2,2-dimethyl-3H-benzofuran-5-carboxamide] displayed an EC50 of 222 nM.
